We go through 71 compounds from ChEMBL document CHEMBL3244164, “Synthesis and analgesic activity of 1,3-dihydro-3-(substituted phenyl)imidazo[4,5-b]pyridin-2-ones and 3-(substituted phenyl)-1,2,3-triazolo[4,5-b]pyridines” (J Med Chem, 1978).

Bounds are passed on as bounds.

Experiment [1] relates to Rattus norvegicus. As to the kind of experiment: Analgesic activity in Sprague-Dawley rat brewer's yeast treated foot assessed as response threshold at 32 mg/kg, po. It is filed as functional.
Experiment [2] deals with Rattus norvegicus. Briefly: Analgesic activity in Sprague-Dawley rat normal foot assessed as response threshold at 32 mg/kg, po. It counts as functional.

For the compound `c1cnc2c(c1)nnn2Cc1ccc2c(c1)OCO2`, the Activity in the experiment on Rattus norvegicus [1] is <25 mm; in the experiment on Rattus norvegicus [2], <40 mm.
On the same counts, the results for `Cc1cnc2c(c1)nnn2-c1ccccc1F` are <25 mm and <40 mm.
On the same counts, the results for `CC(=O)OCCn1c(=O)n(-c2ccc3c(c2)OCO3)c2ncccc21` are 25 mm and <40 mm.
On the same counts, the results for `CC1(C)Oc2ccc(-n3nnc4cccnc43)cc2O1` are <25 mm and <40 mm.
Regarding `CC(C)=CCn1c(=O)n(-c2ccc3c(c2)OCO3)c2ncccc21`, the Activity with Rattus norvegicus [1] is <25 mm; in the experiment with Rattus norvegicus [2], <40 mm.
On the same counts, the results for `O=c1n(CCc2ccccc2)c2cccnc2n1-c1ccc2c(c1)OCO2` are <25 mm and <40 mm.
For the compound `O=c1[nH]c2cccnc2n1-c1ccc2c(c1)COCO2`, the figures for the Activity in the experiment with Rattus norvegicus [1] and in the experiment with Rattus norvegicus [2] were <25 mm and <40 mm, respectively.
On the same counts, the results for `O=c1[nH]c2cccnc2n1-c1cccc(Oc2ccccc2)c1` are <25 mm and <40 mm.
On the same counts, the results for `Fc1ccc(-n2nnc3cccnc32)cc1` are <25 mm and <40 mm.
On the same counts, the results for `Nc1cnc2c(c1)[nH]c(=O)n2-c1ccccc1F` are <25 mm and <40 mm.
As for `Cc1ccc(F)c(-n2c(=O)[nH]c3cccnc32)c1`, the Activity was <25 mm in the experiment on Rattus norvegicus [1] and 40 mm in the experiment on Rattus norvegicus [2].
On the same counts, the results for `O=c1[nH]c2cccnc2n1-c1cccc(C(F)(F)F)c1` are <25 mm and <40 mm.
On the same counts, the results for `O=c1[nH]c2cc([N+](=O)[O-])cnc2n1-c1ccccc1F` are <25 mm and <40 mm.
As for `COc1ccc(-n2nnc3cccnc32)cc1OC`, the Activity in the experiment with Rattus norvegicus [1] is <25 mm; in the experiment with Rattus norvegicus [2], <40 mm.
Regarding `COc1ccc(-n2nnc3cccnc32)cc1`, the Activity with Rattus norvegicus [1] is reported as <25 mm; in the experiment with Rattus norvegicus [2], <40 mm.
On the same counts, the results for `c1cnc2c(c1)nnn2-c1ccc2c(c1)OCO2` are 25 mm and 40 mm.
For `C=CCn1c(=O)n(-c2ccccc2F)c2ncncc21`, the values for the Activity in the experiment with Rattus norvegicus [1] and with Rattus norvegicus [2] were <25 mm and <40 mm, respectively.
On to `C=CCn1c(=O)n(-c2ccc3c(c2)OCO3)c2ncccc21.CI`, for which the Activity in the experiment on Rattus norvegicus [1] was <25 mm; in the experiment on Rattus norvegicus [2], <40 mm.
On the same counts, the results for `C=CCn1c(=O)n(-c2cccc3c2OCO3)c2ncccc21` are <25 mm and <40 mm.
For the compound `CCOC(=O)c1cccc(-n2nnc3cccnc32)c1`, the results for the Activity in the experiment with Rattus norvegicus [1] and with Rattus norvegicus [2] were <25 mm and <40 mm, respectively.
`CC1(C)Oc2ccc(-n3c(=O)[nH]c4cccnc43)cc2O1`: the figures for the Activity in the experiment with Rattus norvegicus [1] and in the experiment on Rattus norvegicus [2] were <25 mm and <40 mm, respectively.
Consider `Fc1ccccc1Cn1nnc2cccnc21`, for which the Activity in the experiment with Rattus norvegicus [1] is <25 mm; in the experiment on Rattus norvegicus [2], <40 mm.
On the same counts, the results for `CCCCCCn1c(=O)n(-c2ccc3c(c2)OCO3)c2ncccc21` are 25 mm and <40 mm.
On the same counts, the results for `O=C(C1CC1)n1c(=O)n(-c2ccc3c(c2)OCO3)c2ncccc21` are <25 mm and <40 mm.
On the same counts, the results for `COc1ccc(OC)c(-n2nnc3cccnc32)c1` are <25 mm and <40 mm.
Turning to `Clc1ccc(-n2nnc3cccnc32)cc1`, the Activity is <25 mm in the experiment with Rattus norvegicus [1] and <40 mm in the experiment with Rattus norvegicus [2].
On the same counts, the results for `C=CCSc1nc2cccnc2n1-c1ccc2c(c1)OCO2` are <25 mm and <40 mm.
On the same counts, the results for `CCC(C)n1c(=O)n(-c2ccc3c(c2)OCO3)c2ncccc21` (configuration not stated) are <25 mm and <40 mm.
Regarding `C=CCn1c(=O)n(-c2cccc(Cl)c2C)c2ncccc21`, the Activity is listed as <25 mm in the experiment with Rattus norvegicus [1] and <40 mm in the experiment with Rattus norvegicus [2].
On the same counts, the results for `COC(=O)c1cnc2c(c1)[nH]c(=O)n2-c1ccc2c(c1)OCO2` are <25 mm and <40 mm.
On the same counts, the results for `CCOC(=O)n1c(=O)n(-c2ccc3c(c2)OCO3)c2ncccc21` are <25 mm and <40 mm.
On the same counts, the results for `Cc1cc2c(cc1-n1c(=O)[nH]c3cccnc31)OCO2` are <25 mm and <40 mm.
As to `Clc1ccc(-n2nnc3cccnc32)c(Cl)c1`, the Activity is on record as <25 mm with Rattus norvegicus [1] and 40 mm in the experiment with Rattus norvegicus [2].
On the same counts, the results for `COC(=O)c1cnc2c(c1)[nH]c(=O)n2-c1ccccc1F` are <25 mm and <40 mm.
On the same counts, the results for `Cc1cnc2c(c1)[nH]c(=O)n2-c1ccccc1F` are 25 mm and <40 mm.
On the same counts, the results for `C=CCn1c(=O)n(-c2ccc(C)c(OC)c2)c2ncccc21` are <25 mm and <40 mm.
For `C=CCn1c(=O)n(-c2ccc3c(c2)CCC3)c2ncccc21`, the figures for the Activity in the experiment on Rattus norvegicus [1] and in the experiment with Rattus norvegicus [2] were <25 mm and <40 mm, respectively.
On the same counts, the results for `c1cnc2c(c1)nnn2-c1ccncc1` are <25 mm and <40 mm.
On the same counts, the results for `C=C(C)Cn1c(=O)n(-c2ccc3c(c2)OCO3)c2ncccc21` are <25 mm and <40 mm.
On the same counts, the results for `C=CCn1c(=O)n(-c2cccc(C(=O)OCC)c2)c2ncccc21` are <25 mm and <40 mm.
In the case of `O=c1[nH]c2cccnc2n1-c1ccc(Cl)c(Cl)c1`, the Activity in the experiment on Rattus norvegicus [1] was <25 mm; in the experiment on Rattus norvegicus [2], <40 mm.
On the same counts, the results for `NC(=O)c1cccc(-n2nnc3cccnc32)c1` are 25 mm and <40 mm.
On the same counts, the results for `COc1ccc(-n2c(=O)[nH]c3cccnc32)cc1OC` are <25 mm and <40 mm.
`CCCCNC(=O)n1c(=O)n(-c2ccc3c(c2)OCO3)c2ncccc21`: the Activity is recorded as <25 mm with Rattus norvegicus [1] and <40 mm with Rattus norvegicus [2].
On the same counts, the results for `CC(C)=O.O=C(Cn1c(=O)n(-c2ccc3c(c2)OCO3)c2ncccc21)c1ccccc1` are <25 mm and 40 mm.
On the same counts, the results for `O=c1[nH]c2cccnc2n1-c1cccc(F)c1` are <25 mm and <40 mm.
On the same counts, the results for `Cc1cccc(C)c1-n1nnc2cccnc21` are 25 mm and <40 mm.
Consider `CSCn1c(=O)n(-c2ccccc2)c2ncccc21`, for which the Activity is listed as 25 mm with Rattus norvegicus [1] and <40 mm in the experiment with Rattus norvegicus [2].
In the case of `CCOC(=O)c1cccc(-n2c(=O)[nH]c3cccnc32)c1`, the Activity is on record as <25 mm with Rattus norvegicus [1] and <40 mm in the experiment with Rattus norvegicus [2].
On the same counts, the results for `Cc1oc2ccc(-n3nnc4cccnc43)cc2c1C` are <25 mm and <40 mm.
On the same counts, the results for `C=CCn1c(=O)n(-c2ccc3c(c2)OCO3)c2ccccc21` are <25 mm and <40 mm.
On the same counts, the results for `C=CCn1c(=O)n(-c2ccc3c(c2)OC2(CCCCC2)O3)c2ncccc21` are <25 mm and 40 mm.
As for `O=c1[nH]c2cccnc2n1-c1ccc2c(c1)OCCO2`, the Activity is <25 mm in the experiment on Rattus norvegicus [1] and <40 mm with Rattus norvegicus [2].
Turning to `N#Cc1cccc(-n2nnc3cccnc32)c1`, the Activity with Rattus norvegicus [1] is <25 mm; in the experiment with Rattus norvegicus [2], <40 mm.
As for `COc1cccc(-n2nnc3cccnc32)c1`, the Activity in the experiment on Rattus norvegicus [1] was <25 mm; in the experiment with Rattus norvegicus [2] it was <40 mm.
On the same counts, the results for `O=c1[nH]c2cccnc2n1CCc1ccccc1` are <25 mm and <40 mm.
Turning to `C=CCn1c(=O)n(-c2ccc(OC)c(OC)c2)c2ncccc21`, the results for the Activity in the experiment with Rattus norvegicus [1] and with Rattus norvegicus [2] were <25 mm and <40 mm, respectively.
Take `O=c1n(CCC2CCCCC2)c2cccnc2n1-c1ccc2c(c1)OCO2`: the values for the Activity in the experiment with Rattus norvegicus [1] and in the experiment on Rattus norvegicus [2] were <25 mm and <40 mm, respectively.
On the same counts, the results for `Cc1ccc(F)c(-n2nnc3cccnc32)c1` are <25 mm and <40 mm.
On the same counts, the results for `O=c1[nH]c2cccnc2n1-c1ccc2c(c1)COC2` are <25 mm and <40 mm.
On the same counts, the results for `O=c1[nH]c2cccnc2n1Cc1ccc2c(c1)OCO2` are <25 mm and <40 mm.
Take `O=c1n(-c2ccc3c(c2)OCO3)c2ncccc2n1S(=O)(=O)c1ccc(F)cc1`: the values for the Activity in the experiment with Rattus norvegicus [1] and in the experiment with Rattus norvegicus [2] were <25 mm and <40 mm, respectively.
`CN(C)CCCn1c(=O)n(-c2ccc3c(c2)OCO3)c2ncccc21`: the figures for the Activity with Rattus norvegicus [1] and with Rattus norvegicus [2] were <25 mm and <40 mm, respectively.
As for `O=C(O)Cn1c(=O)n(-c2ccc3c(c2)OCO3)c2ncccc21`, the Activity was <25 mm with Rattus norvegicus [1] and <40 mm in the experiment with Rattus norvegicus [2].
Consider `C=CCn1c(=O)n(-c2ccccc2F)c2ncccc21`, for which the results for the Activity in the experiment on Rattus norvegicus [1] and with Rattus norvegicus [2] were 25 mm and <40 mm, respectively.
On the same counts, the results for `CC(C)Cc1ccc(-n2c(=O)[nH]c3cccnc32)cc1` are <25 mm and <40 mm.
Take `O=c1[nH]c2cncnc2n1-c1ccc2c(c1)OCO2`: the results for the Activity in the experiment with Rattus norvegicus [1] and with Rattus norvegicus [2] were <25 mm and <40 mm, respectively.
On the same counts, the results for `Clc1ccc(-n2nnc3cccnc32)cc1Cl` are <25 mm and <40 mm.
On the same counts, the results for `Cc1ccc(-n2nnc3cccnc32)cc1` are <25 mm and <40 mm.
On the same counts, the results for `O=c1n(Cc2ccccc2)c2cccnc2n1-c1ccc2c(c1)OCO2` are <25 mm and <40 mm.
Turning to `O=C(O)c1cnc2c(c1)[nH]c(=O)n2-c1ccccc1F`, the Activity in the experiment with Rattus norvegicus [1] is listed as <25 mm; in the experiment on Rattus norvegicus [2], <40 mm.
